Data as given in article PMC5694347 (Clinical cancer research : an official journal of the …, 2015).
Marks after values point to notes of the source that are not given here.

Test system: patients with relapsed and/or refractory lymphoma or MM
Test: Safety: adverse events graded by NCI CTCAE version 3.0
Conditions: for Patients with serious AEs (SAEs): eight patients
[1] = Schedule B, n=17, high-level term

NS(=O)(=O)OC[C@@H]1C[C@@H](n2ccc3c(N[C@H]4CCc5ccccc54)ncnc32)C[C@@H]1O [pevonedistat]
Abdominal discomfort, Grade ≥3 (Schedule B, n=17): 0 n (%) | Anemia, All grades (Schedule B, n=17): 3 (18) n (%) | Anemia, Grade ≥3 (Schedule B, n=17): 1 (6) n (%) | Any AE, All grades (Schedule B, n=17): 17 (100) n (%) | Any AE, Grade ≥3 (Schedule B, n=17): 12 (71) n (%) | Asthenia, All grades (Schedule B, n=17): 3 (18) n (%) | Asthenia, Grade ≥3 (Schedule B, n=17): 0 n (%) | Back pain, All grades (Schedule B, n=17): 4 (24) n (%) | Back pain, Grade ≥3 (Schedule B, n=17): 0 n (%) | Blood alkaline phosphatase increased, All grades (Schedule B, n=17): 1 (6) n (%) | Blood alkaline phosphatase increased, Grade ≥3 (Schedule B, n=17): 0 n (%) | Blood creatinine increased, All grades (Schedule B, n=17): 0 n (%) | Blood creatinine increased, Grade ≥3 (Schedule B, n=17): 0 n (%) | Chills, All grades (Schedule B, n=17): 6 (35) n (%) | Chills, Grade ≥3 (Schedule B, n=17): 0 n (%) | Constipation, All grades (Schedule B, n=17): 5 (29) n (%) | Constipation, Grade ≥3 (Schedule B, n=17): 0 n (%) | Cough, All grades (Schedule B, n=17): 5 (29) n (%) | Cough, Grade ≥3 (Schedule B, n=17): 0 n (%) | Decreased appetite, All grades (Schedule B, n=17): 10 (59) n (%) | Decreased appetite, Grade ≥3 (Schedule B, n=17): 0 n (%) | Dehydration, All grades (Schedule B, n=17): 3 (18) n (%) | Dehydration, Grade ≥3 (Schedule B, n=17): 1 (6) n (%) | Diarrhea, All grades (Schedule B, n=17): 8 (47) n (%) | Diarrhea, Grade ≥3 (Schedule B, n=17): 0 n (%) | Dizziness, All grades (Schedule B, n=17): 8 (47) n (%) | Dizziness, Grade ≥3 (Schedule B, n=17): 0 n (%) | Dyspepsia, All grades (Schedule B, n=17): 3 (18) n (%) | Dyspepsia, Grade ≥3 (Schedule B, n=17): 0 n (%) | Dyspnea exertional, All grades (Schedule B, n=17): 3 (18) n (%) | Dyspnea exertional, Grade ≥3 (Schedule B, n=17): 0 n (%) | Dyspnea, All grades (Schedule B, n=17): 4 (24) n (%) | Dyspnea, Grade ≥3 (Schedule B, n=17): 1 (6) n (%) | Fatigue, All grades (Schedule B, n=17): 12 (71) n (%) | Fatigue, Grade ≥3 (Schedule B, n=17): 1 (6) n (%) | Headache, All grades (Schedule B, n=17): 9 (53) n (%) | Headache, Grade ≥3 (Schedule B, n=17): 0 n (%) | Hyperbilirubinemia, All grades (Schedule B, n=17): 5 (29) n (%) | Hyperbilirubinemia, Grade ≥3 (Schedule B, n=17): 1 (6) n (%) | Hypercalcemia, All grades (Schedule B, n=17): 1 (6) n (%) | Hypercalcemia, Grade ≥3 (Schedule B, n=17): 0 n (%) | Hyperkalemia, All grades (Schedule B, n=17): 0 n (%) | Hyperkalemia, Grade ≥3 (Schedule B, n=17): 0 n (%) | Hypomagnesemia, All grades (Schedule B, n=17): 1 (6) n (%) | Hypomagnesemia, Grade ≥3 (Schedule B, n=17): 0 n (%) | Hypophosphatemia, All grades (Schedule B, n=17): 1 (6) n (%) | Hypophosphatemia, Grade ≥3 (Schedule B, n=17): 1 (6) n (%) | Insomnia, All grades (Schedule B, n=17): 4 (24) n (%) | Insomnia, Grade ≥3 (Schedule B, n=17): 0 n (%) | Muscle spasms, All grades (Schedule B, n=17): 10 (59) n (%) | Muscle spasms, Grade ≥3 (Schedule B, n=17): 1 (6) n (%) | Myalgia, All grades (Schedule B, n=17): 10 (59) n (%) | Myalgia, Grade ≥3 (Schedule B, n=17): 0 n (%) | Nausea, All grades (Schedule B, n=17): 13 (76) n (%) | Nausea, Grade ≥3 (Schedule B, n=17): 0 n (%) | Neutropenia, All grades (Schedule B, n=17): 2 (12) n (%) | Neutropenia, Grade ≥3 (Schedule B, n=17): 2 (12) n (%) | Pain in extremity, All grades (Schedule B, n=17): 5 (29) n (%) | Pain in extremity, Grade ≥3 (Schedule B, n=17): 0 n (%) | Pain, All grades (Schedule B, n=17): 5 (29) n (%) | Pain, Grade ≥3 (Schedule B, n=17): 1 (6) n (%) | Paresthesia, All grades (Schedule B, n=17): 5 (29) n (%) | Paresthesia, Grade ≥3 (Schedule B, n=17): 0 n (%) | Peripheral edema, All grades (Schedule B, n=17): 3 (18) n (%) | Peripheral edema, Grade ≥3 (Schedule B, n=17): 0 n (%) | Pneumonia, All grades (Schedule B, n=17): 3 (18) n (%) | Pneumonia, Grade ≥3 (Schedule B, n=17): 2 (12) n (%) | Productive cough, All grades (Schedule B, n=17): 3 (18) n (%) | Productive cough, Grade ≥3 (Schedule B, n=17): 0 n (%) | Pyrexia, All grades (Schedule B, n=17): 8 (47) n (%) | Pyrexia, Grade ≥3 (Schedule B, n=17): 1 (6) n (%) | Sinus tachycardia, All grades (Schedule B, n=17): 3 (18) n (%) | Sinus tachycardia, Grade ≥3 (Schedule B, n=17): 0 n (%) | Thrombocytopenia, All grades (Schedule B, n=17): 3 (18) n (%) | Upper respiratory tract infection, All grades (Schedule B, n=17): 3 (18) n (%) | Upper respiratory tract infection, Grade ≥3 (Schedule B, n=17): 1 (6) n (%) | Vision blurred, All grades (Schedule B, n=17): 0 n (%) | Vision blurred, Grade ≥3 (Schedule B, n=17): 0 n (%) | Vomiting, All grades (Schedule B, n=17): 10 (59) n (%) | Vomiting, Grade ≥3 (Schedule B, n=17): 0 n (%) | Weight decreased, All grades (Schedule B, n=17): 3 (18) n (%) | Weight decreased, Grade ≥3 (Schedule B, n=17): 0 n (%) | Thrombocytopenia, Grade ≥3 (Schedule B, n=17, 1 DLT): 1 (6) ^a n (%) | Peripheral neuropathies NEC, All grades [1]: 2 (12) n (%) | Peripheral neuropathies NEC, Grade ≥3 [1]: 0 n (%) | Treatment-related deaths (both schedules): no treatment-related deaths | Peripheral neuropathy rate (overall, both schedules): 11% | Grade ≥3 anemia (schedule A): 19% | Patients who discontinued due to occurrence of an AE (schedule A): 2 n | Patients with SAEs considered related to pevonedistat (schedule A): four | Patients with serious AEs (SAEs) (schedule A): 30% | Grade ≥3 neutropenia (schedule B): 12% | Grade ≥3 pneumonia (schedule B): 12% | Patients who discontinued due to occurrence of an AE (schedule B): 1 n | Patients with serious AEs (SAEs) (schedule B): 47%
